According to the NIST ThermoML archive (doi:10.1021/je060271a):

Settings: 343.15 K, Liquid, Vibrating tube method

CCCC(=O)OCC(COC(=O)CCC)(COC(=O)CCC)COC(=O)CCC [pentaerythritol tetrabutyrate]
Settings	mass density [kg/m3]
14185 kPa	1019
14223 kPa	1019.1
14263 kPa	1019
14296 kPa	1019.1
14334 kPa	1019.1
14374 kPa	1019.1
14412 kPa	1019.1
14452 kPa	1019.2
14485 kPa	1019.2
14525 kPa	1019.1
14564 kPa	1019.1
14606 kPa	1019.2
14639 kPa	1019.3
14680 kPa	1019.3
14721 kPa	1019.3
14764 kPa	1019.4
14805 kPa	1019.4
14840 kPa	1019.4
15093 kPa	1019.6
15139 kPa	1019.6
15180 kPa	1019.6
15211 kPa	1019.8
15248 kPa	1019.7
15286 kPa	1019.7
15317 kPa	1019.7
15355 kPa	1019.8
15392 kPa	1019.8
15430 kPa	1019.8
15469 kPa	1019.9
15538 kPa	1019.9
15616 kPa	1020
15655 kPa	1019.9
15688 kPa	1020.1
15727 kPa	1020.1
15769 kPa	1020
15802 kPa	1020.2
15842 kPa	1020.2
15881 kPa	1020.2
15922 kPa	1020.2
15956 kPa	1020.2
15997 kPa	1020.2
16038 kPa	1020.3
16079 kPa	1020.2
16120 kPa	1020.4
16154 kPa	1020.3
16195 kPa	1020.4
16239 kPa	1020.3
16276 kPa	1020.5
16318 kPa	1020.4
16360 kPa	1020.5
16403 kPa	1020.5
16446 kPa	1020.6
16489 kPa	1020.5
16526 kPa	1020.6
16570 kPa	1020.6
16614 kPa	1020.7
16659 kPa	1020.6
16696 kPa	1020.7
16741 kPa	1020.8
16787 kPa	1020.9
16833 kPa	1020.9
16879 kPa	1020.9
16918 kPa	1021
16964 kPa	1021
17012 kPa	1020.9
17052 kPa	1021
17100 kPa	1021.1
17143 kPa	1021.2
17186 kPa	1021
17229 kPa	1021.2
17265 kPa	1021.1
17310 kPa	1021.1
17355 kPa	1021.3
17393 kPa	1021.2
17439 kPa	1021.3
17485 kPa	1021.2
17525 kPa	1021.4
17560 kPa	1021.3
17590 kPa	1021.4
17624 kPa	1021.4
17660 kPa	1021.5
17694 kPa	1021.4
17730 kPa	1021.5
17760 kPa	1021.5
17796 kPa	1021.6
17870 kPa	1021.5
17900 kPa	1021.5
17935 kPa	1021.6
17972 kPa	1021.8
18009 kPa	1021.6
18039 kPa	1021.7
18076 kPa	1021.8
18113 kPa	1021.7
18150 kPa	1021.8
18187 kPa	1021.7
18218 kPa	1021.8
18256 kPa	1021.9
18294 kPa	1021.8
18332 kPa	1022
18370 kPa	1021.9
18402 kPa	1021.9
18441 kPa	1022
18479 kPa	1022
18518 kPa	1022.1
18552 kPa	1022.2
18590 kPa	1022.1
18630 kPa	1022.1
18669 kPa	1022.1
18703 kPa	1022.1
18742 kPa	1022.2
18784 kPa	1022.2
18824 kPa	1022.3
18864 kPa	1022.3
18898 kPa	1022.2
18938 kPa	1022.4
18978 kPa	1022.3
19020 kPa	1022.4
19054 kPa	1022.4
19096 kPa	1022.5
19138 kPa	1022.5
19216 kPa	1022.5
19297 kPa	1022.6
19340 kPa	1022.6
19382 kPa	1022.6
19425 kPa	1022.6
19468 kPa	1022.7
19504 kPa	1022.8
19548 kPa	1022.7
19591 kPa	1022.9
19634 kPa	1022.7
19679 kPa	1022.9
19717 kPa	1022.8
19761 kPa	1022.8
19809 kPa	1022.9
19854 kPa	1022.9
19892 kPa	1023
19938 kPa	1023
19984 kPa	1023.1
20022 kPa	1023.2
20068 kPa	1023.1
20115 kPa	1023.2
20161 kPa	1023.1
20200 kPa	1023.2
20247 kPa	1023.1
20294 kPa	1023.1
20341 kPa	1023.3
